Laboratory results reported in publication PMC12926040, “ADP-ribose is a competitive inhibitor of methanol dehydrogenases from Bacillus methanolicus” (The Journal of Biological Chemistry, 2025).

What was measured:
[1] = biological target: T1, BmMDH2 (Bacillus methanolicus, UniProt I3E949); assay: Inhibition kinetics of ADPR on formaldehyde reduction (NADH fluorescence); format: biochemical, Bacillus methanolicus MGA3; details: read-out: KM of BmMDH2, without ADPR, 0 to 150 μM NADH
Procedure: Data are shown as means ± SDs (n = 3). Apparent KM values for NAD^+ were determined in the presence of 10 nM ACT (Fig. S6). […] Data are presented as means ± SDs (n = 3). […] The row labels are given as the substance labels. / Panel D: no substance label is printed with the KD and thermodynamic values.

[2] = biological target: ACT (Bacillus methanolicus, UniProt Q8KP10, K162Q/L124I/V88I); details: read-out: KM of ACT for ADPR; Tris-HCl pH 8.0, 5 mM MgCl2, 25 °C
Procedure: The reaction was terminated by adding 10 μl of 3 M H2SO4 after incubation at 25 ° C for 5 min, followed by analysis using HPLC. The kcat and KM values were determined by fitting the initial velocity versus substrate concentration data to the Michaelis-Menten equation using GraphPad Prism.
Reactions were terminated by adding 10 μL of 3 M H2SO4 after incubation at 25 °C for 5 minutes. Data are means ± SDs of three measurements.

[3] = biological target: T2, glucose dehydrogenase (BmGDH) (Priestia megaterium, UniProt P40288); assay: Inhibition effect of ADPR on type II alcohol dehydrogenases; format: biochemical, Bacillus megaterium IWG3; details: 0.5 mM ADPR, 0.5 mM NAD+
T2 construct: made in house; cell-free extract

[4] = biological target: T3, CbFDH (Candida boidinii, UniProt O13437); assay: as above; format: biochemical; details: 0.5 mM ADPR, 0.5 mM NAD+
T3 construct: made in house; cell-free extract
T3 sequence (O13437 1-364): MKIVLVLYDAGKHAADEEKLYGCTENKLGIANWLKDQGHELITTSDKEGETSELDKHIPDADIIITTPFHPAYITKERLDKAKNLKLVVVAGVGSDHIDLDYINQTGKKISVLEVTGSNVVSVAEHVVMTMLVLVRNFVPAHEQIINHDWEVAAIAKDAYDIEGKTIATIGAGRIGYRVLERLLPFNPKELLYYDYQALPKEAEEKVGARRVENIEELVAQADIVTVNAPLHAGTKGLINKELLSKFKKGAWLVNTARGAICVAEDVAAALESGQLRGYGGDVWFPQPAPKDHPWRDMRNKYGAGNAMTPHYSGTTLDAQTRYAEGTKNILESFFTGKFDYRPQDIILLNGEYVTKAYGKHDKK

[5] = system: isopropanol dehydrogenase (IPADHM4); format: biochemical, Brucella suis
[6] = system: BaAlaDH; assay: Inhibition effect of ADPR on type II alcohol dehydrogenases; format: biochemical, Bacillaceae; details: 0.5 mM ADPR, 0.5 mM NAD+
[7] = biological target: T1, BmMDH2; assay: Kinetic assay of MDHs, ethanol dehydrogenation, NAD+ varied; format: biochemical, Bacillus methanolicus MGA3; details: 1.0 μM ADPR
[8] = biological target: T4, ADH from Saccharomyces cerevisiae (ScADH) (Saccharomyces cerevisiae, UniProt P00330); assay: Inhibition effect of ADPR on type I alcohol dehydrogenase; format: biochemical; details: 0.5 mM ADPR, 0.5 mM NAD+
T4 construct: purchased TCI A0200
T4 sequence (P00330 1-348): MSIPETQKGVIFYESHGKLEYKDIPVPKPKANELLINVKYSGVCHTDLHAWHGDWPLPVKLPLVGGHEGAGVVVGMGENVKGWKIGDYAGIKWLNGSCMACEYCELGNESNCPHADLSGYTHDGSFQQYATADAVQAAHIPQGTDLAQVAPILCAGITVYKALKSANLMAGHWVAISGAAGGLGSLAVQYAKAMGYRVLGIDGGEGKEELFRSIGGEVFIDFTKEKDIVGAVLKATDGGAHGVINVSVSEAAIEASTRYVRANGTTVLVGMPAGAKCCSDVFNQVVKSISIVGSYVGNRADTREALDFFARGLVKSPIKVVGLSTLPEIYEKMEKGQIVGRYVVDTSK

[9] = biological target: T1, BmMDH2; assay: Effects of NAM, AMP and ADPR (0.3 mM each) on BmMDH2 activity; format: biochemical, Bacillus methanolicus MGA3; details: 3 mM NAD+, 40 mM ethanol
[10] = biological target: T1, BmMDH2; assay: Isothermal titration calorimetry (ITC) of ADPR binding; set-up: species or system Bacillus methanolicus MGA3; details: metal-free BmMDH2
[11] = substrate: NC(=O)c1ccc[n+]([C@@H]2O[C@H](COP(=O)(O)OP(=O)(O)OC[C@H]3O[C@@H](n4cnc5c(N)ncnc54)[C@H](O)[C@@H]3O)[C@@H](O)[C@H]2O)c1; assay: Kinetic assay of MDHs, ethanol dehydrogenation, NAD+ varied; format: biochemical, Bacillus methanolicus MGA3; details: other: in the presence of 10 nM ACT, 40 mM ethanol, pH 8.0, 25.0 °C
Procedure: NAD^+ and NADH used for the kinetic assays were pretreated with ACT as described above. The reaction mixtures for the ethanol dehydrogenation contained 40 mM ethanol, adequate MDHs, and various concentrations of NAD^+ (ranging from 0 to 48 mM). Enzymatic catalytic rates were determined by monitoring the increase in NADH absorbance at 340 nm. To determine the kinetics of BmMDH2 for the reverse direction (formaldehyde reduction), the reaction mixtures contained 1 mM DTT, 100 nM BmMDH2, 20 mM formaldehyde, 0.5 mM MnCl2, and 0 to 150 μM of NADH. The catalytic rates of formaldehyde reduction were measured by monitoring the decrease of NADH fluorescence, using excitation and emission wavelengths of 340 nm and 535 nm, respectively.
The kinetic assays were conducted in 200 μL Tris-HCl buffer (100 mM, pH 8.0) at 25 °C. The reaction mixture contained 40 mM ethanol, 0.5 mM MnCl2, 10 nM ACT, 5 mM MgCl2, adequate MDHs (BmMDH1: 500 nM; BmMDH2: 100 nM; BmMDH2S101G: 100 nM; CnMDH2 CT4: 100 nM), and 0 to 48 mM of NAD^+. […] Data are means ± SDs of three measurements.

[12] = substrate: NC(=O)c1ccc[n+]([C@@H]2O[C@H](COP(=O)(O)OP(=O)(O)OC[C@H]3O[C@@H](n4cnc5c(N)ncnc54)[C@H](O)[C@@H]3O)[C@@H](O)[C@H]2O)c1; assay: as above; format: biochemical, Bacillus methanolicus MGA3; details: other: in the presence of 10 nM ACT, 40 mM ethanol, pH 8.0, 25.0 °C; remark: listed apart in the source

T2 sequence (P40288 whole entry): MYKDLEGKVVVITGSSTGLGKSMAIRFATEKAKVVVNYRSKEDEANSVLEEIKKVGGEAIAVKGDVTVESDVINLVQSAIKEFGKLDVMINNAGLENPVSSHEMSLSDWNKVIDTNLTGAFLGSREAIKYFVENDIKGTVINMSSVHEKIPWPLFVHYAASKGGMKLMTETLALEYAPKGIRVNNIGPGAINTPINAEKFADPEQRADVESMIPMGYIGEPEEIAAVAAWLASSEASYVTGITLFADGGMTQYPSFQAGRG

## NC(=O)C1=CN([C@@H]2O[C@H](COP(=O)(O)OP(=O)(O)OC[C@H]3O[C@@H](n4cnc5c(N)ncnc54)[C@H](O)[C@@H]3O)[C@@H](O)[C@H]2O)C=CC1 [NADH]
[1]
  Km: 6.7 ± 1.7 µM

## adenosine diphosphate ribose [ADPR]
[2]
  Km: 15.9 µM
[3]
  inhibition by ADPR: None of these enzymes showed significant inhibition
[4]
  inhibition by ADPR: None of these enzymes showed significant inhibition
[5]
  inhibition by ADPR: None of these enzymes showed significant inhibition
[6]
  inhibition by ADPR: None of these enzymes showed significant inhibition
[7]
  effect on kinetics of ethanol dehydrogenation: decrease in kcat, while KM remained unchanged
[8]
  inhibition by ADPR: None of these enzymes showed significant inhibition
[9]
  inhibition of BmMDH2 activity: 72%
[10]
  binding to EDTA-treated BmMDH2: no binding

B1: BmMDH1 (Bacillus methanolicus MGA3) (protein)
chain: MTTNFFIPPASVIGRGAVKEVGTRLKQIGAKKALIVTDAFLHSTGLSEEVAKNIREAGVDVAIFPKAQPDPADTQVHEGVDVFKQENCDSLVSIGGGSSHDTAKAIGLVAANGGRINDYQGVNSVEKPVVPVVAITTTAGTGSETTSLAVITDSARKVKMPVIDEKITPTVAIVDPELMVKKPAGLTIATGMDALSHAIEAYVAKGATPVTDAFAIQAMKLINEYLPKAVANGEDIEAREKMAYAQYMAGVAFNNGGLGLVHSISHQVGGVYKLQHGICNSVNMPHVCAFNLIAKTERFAHIAELLGENVAGLSTAAAAERAIVALERINKSFGIPSGYAEMGVKEEDIELLAKNAYEDVCTQSNPRVPTVQDIAQIIKNAM
[11]
  Km: 2100 ± 1000 µM

B2: BmMDH2 (Bacillus methanolicus MGA3) (protein)
chain: MTNTQSAFFMPSVNLFGAGSVNEVGTRLADLGVKKALLVTDAGLHGLGLSEKISSIIRAAGVEVSIFPKAEPNPTDKNVAEGLEAYNAENCDSIVTLGGGSSHDAGKAIALVAANGGKIHDYEGVDVSKEPMVPLIAINTTAGTGSELTKFTIITDTERKVKMAIVDKHVTPTLSINDPELMVGMPPSLTAATGLDALTHAIEAYVSTGATPITDALAIQAIKIISKYLPRAVANGKDIEAREQMAFAQSLAGMAFNNAGLGYVHAIAHQLGGFYNFPHGVCNAVLLPYVCRFNLISKVERYAEIAAFLGENVDGLSTYDAAEKAIKAIERMAKDLNIPKGFKELGAKEEDIETLAKNAMKDACALTNPRKPKLEEVIQIIKNAM
[12]
  Km: 720 ± 60 µM
